What was measured:
Format in all cases: cell-based
[1] = target: T1, AR (Homo sapiens, UniProt P10275); assay: Western blot degradation of AR; details: LnCap Cell; 24 hours
T1 construct: expression of target proteins in cells; endogenous in cells
T1 sequence (P10275 1-920): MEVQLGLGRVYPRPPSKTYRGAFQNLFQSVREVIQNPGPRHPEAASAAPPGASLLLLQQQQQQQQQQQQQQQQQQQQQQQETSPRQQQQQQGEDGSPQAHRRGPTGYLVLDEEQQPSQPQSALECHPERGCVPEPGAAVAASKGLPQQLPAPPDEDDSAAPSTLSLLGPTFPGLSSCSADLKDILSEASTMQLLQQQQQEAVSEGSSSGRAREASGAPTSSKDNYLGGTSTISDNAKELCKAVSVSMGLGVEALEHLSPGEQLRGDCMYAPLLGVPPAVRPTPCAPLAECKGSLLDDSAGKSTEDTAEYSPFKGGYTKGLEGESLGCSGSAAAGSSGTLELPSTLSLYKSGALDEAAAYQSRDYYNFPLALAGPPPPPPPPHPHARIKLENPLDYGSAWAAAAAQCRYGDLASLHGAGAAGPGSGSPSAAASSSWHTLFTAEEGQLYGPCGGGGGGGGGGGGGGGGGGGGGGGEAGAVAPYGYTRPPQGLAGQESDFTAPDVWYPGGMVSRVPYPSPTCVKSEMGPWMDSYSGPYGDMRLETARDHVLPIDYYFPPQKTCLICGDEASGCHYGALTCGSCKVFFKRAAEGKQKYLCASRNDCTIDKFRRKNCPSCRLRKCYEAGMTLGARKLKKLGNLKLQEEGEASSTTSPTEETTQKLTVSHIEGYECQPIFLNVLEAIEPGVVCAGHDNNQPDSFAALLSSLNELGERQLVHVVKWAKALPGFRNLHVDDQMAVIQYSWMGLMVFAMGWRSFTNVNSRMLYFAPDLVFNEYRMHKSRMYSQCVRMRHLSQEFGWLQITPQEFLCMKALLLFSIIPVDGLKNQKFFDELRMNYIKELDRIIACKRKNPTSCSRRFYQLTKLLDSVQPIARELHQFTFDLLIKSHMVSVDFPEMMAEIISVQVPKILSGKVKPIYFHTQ
Description: Conventional Western blot assay was performed to evaluate the effects of the compounds of the present disclosure on the expression of target proteins in cells.
(1) Cell Seeding and Protein Harvesting: The selected cells were processed according to the cell seeding procedure and protein harvesting procedure in Table II-2.
(2) To the collected supernatant, 5×SDS sample loading buffer was added, followed by denaturation at 95 °C for 5 minutes. The denatured samples were then separated by SDS-PAGE electrophoresis on a polyacrylamide gel. Proteins were transferred to a nitrocellulose membrane (0.45 μm NC membrane), blocked with blocking buffer at room temperature for 1 hour, and subjected to antibody incubation and development procedures according to the antibody manufacturer's instructions (Cell Signaling Technology).
Half-Maximal Degradation Concentration value (the drug concentration required for degrading proteins by 50%, abbreviated as DC50) reads method: comparing the grayscale values of Western blot bands from drug-treated samples with those from blank DMSO-treated controls, and identifying the drug concentration range at which the grayscale value is half that of the DMSO-treated control bands.
DC50 values can be calculated using ImageJ software to measure grayscale values of Western blot bands from drug-treated samples. The concentration-response curve is fitted to estimate the drug concentration corresponding to half the grayscale value.
Target protein remaining (%) refers to the percentage of target protein remaining in cells after treatment with protein degrader compounds.
Calculation method for target protein remaining (%): Use ImageJ software to measure grayscale values of Western blot bands from drug (protein degrader)-treated samples. The grayscale value of drug-treated bands is divided by that of internal control protein bands, and the resulting quotient is normalized to obtain the relative percentage of remaining target protein after protein degrader treatment.
Target protein degradation rate (%)=1−target protein remaining (%).

[2] = system: Human T lymphocytic leukemia cell line (Jurkat); assay: Inhibition of Jurkat cell proliferation (CellTiter luminescent viability); details: Homo sapiens, Table IF3, AR inhibitor-based, 96 hours; for inhibition at 0.01 µM: 10 nM, read-out: Inhibition Rate at 10 nM (%); for inhibition at 0.5 µM: 500 nM, read-out: Inhibition Rate at 500 nM (%)
Description: The tumor cells used herein were cultured in a cell culture medium listed in table 3 at 37 °C in an incubator with 5% CO2. Prior to experimentation, all cell lines used were correctly identified by STR profiling, and tested negative for mycoplasma contamination using a mycoplasma detection kit through routine screenings.
The IC50 values of the compounds of the present disclosure (including the compounds in Table 1, Table 2, and Examples 1-468) were determined using the CellTiter-Meiluncell Luminescent Cell Viability Assay Kit from Dalian Meilun Biotech Co., Ltd. The detailed procedure is as follows: Tumor cells were seeded in 96-well cell culture plates at the densities specified in Table 4. On the following day, the test compounds of the present disclosure were subjected to serial dilution. The dilution can be performed according to one of the following two methods: • (1) The first dilution method: The test compounds of the present disclosure (including the compounds in Table 1, Table 2, and Examples 1-468) were subjected to 5-fold serial dilutions starting from a highest concentration of 2000 μM, resulting in a total of 9 concentrations from high to low (2000, 400, 80, 16, 3.2, 0.64, 0.128, 0.0256, 0.00512 μM). Subsequently, 0.5 μL of the test compound dilution was transferred into the 96-well plate containing the cells, with each well containing 100 μL of cell culture medium. […] Into the 96-well plate, the diluted test compounds and corresponding detection reagents were added, resulting in final test compound concentrations of 500 nM and 10 nM, respectively. The experimental procedure is described below using the diluted 2 μM test compound as an example.
0.5 μL of the aforementioned diluted compound of the present disclosure (including the compounds in Table 1, Table 2, and Examples 1-468) was added to the seeded cells in 100 μL of medium, yielding a final test compound concentration of 10 nM. After the cells were treated with the compounds of the present disclosure for a specified period, the cell viability assay reagent was added to the culture medium according to the kit's instructions to determine cell viability. […] All controls were treated using the same procedure as the compounds of the present disclosure. The growth inhibition curves for the compounds of the present disclosure were plotted using Prism GraphPad software, and the IC50 values were calculated therefrom.

[3] = system: Human acute lymphocytic leukemia T lymphocytes cell line (CCRF-CEM); assay: Inhibition of CCRF-CEM cell proliferation (CellTiter luminescent viability); details: Table IF2, AR inhibitor-based; for inhibition at 0.01 µM / inhibition at 0.5 µM: Homo sapiens, 96 h; for inhibition at 0.01 µM: read-out: Inhibition Rate at 10 nM (%); for inhibition at 0.5 µM: 500 nM, read-out: Inhibition Rate at 500 nM (%)
[4] = system: Human diffuse large B-cell lymphoma cell line (TMD8); assay: Inhibition of TMD8 cell proliferation (CellTiter luminescent viability); details: Table IF1, AR inhibitor-based; for inhibition at 0.01 µM / inhibition at 0.5 µM: Homo sapiens, TMD8, 96 h; for inhibition at 0.01 µM: read-out: Inhibition Rate at 10 nM (%); for inhibition at 0.5 µM: TMD8, 500 nM, read-out: Inhibition Rate at 500 nM (%)

Compound | Degradation of substrate protein AR (substrate protein remaining %) [1] | inhibition at 0.01 µM [2] | inhibition at 0.5 µM [2] | inhibition at 0.01 µM ([3]; 10 nM) | inhibition at 0.5 µM [3] | inhibition at 0.01 µM ([4]; TMD8, 10 nM) | inhibition at 0.5 µM [4] | Inhibition Rate at 10 nM (%) ([3]; 10 nM, 96 hours, 0.01 µM) | Inhibition Rate at 10 nM (%) ([4]; TMD8, 10 nM, 96 hours, 0.01 µM)
N#Cc1ccc(O[C@H]2CC[C@H](NC(=O)c3ccc(N4CCC(CN5CC6CCC(C5)N6c5ccc6c(c5)C(=O)N(N5CCC(=O)NC5=O)C6=O)CC4)nn3)CC2)cc1Cl [GT-05229, N-((1r,4r)-4-(3-chloro-4-cyanophenoxy)cyclohexyl)-6-(4-((8-(2-(2,4-dioxotetrahydropyrimidin-1(2H)-yl)-1,3-dioxoisoindolin-5-yl)-3,8-diazabicyclo[3.2.1]octan-3-yl)methyl)piperidin-1-yl)pyridazine-3-carboxamide] | A (0%≤substrate protein remaining %≤80%) | 20 to 30% | 40 to 60% | 30 to 40% | 60 to 80% | 40 to 60% | 60 to 80% | – | –
CC1(C)[C@H](NC(=O)c2ccc(N3CCC(CN4CCN(c5ccc6c(c5)C(=O)N(N5CCC(=O)NC5=O)C6=O)CC4)CC3)nc2)C(C)(C)[C@H]1Oc1ccc(C#N)c(Cl)c1 [GT-05301, N-((1r,3r)-3-(3-chloro-4-cyanophenoxy)-2,2,4,4-tetramethylcyclobutyl)-6-(4-((4-(2-(2,4-dioxotetrahydropyrimidin-1(2H)-yl)-1,3-dioxoisoindolin-5-yl)piperazin-1-yl)methyl)piperidin-1-yl)nicotinamide] | A (0%≤substrate protein remaining %≤80%) | 10 to 15% | 20 to 30% | – | 30 to 40% | – | 40 to 60% | IFb5 (15% ≤ IFb5 < 20%) | IFa6 (25% ≤ IFa6 < 30%)
CC1(C)[C@H](NC(=O)c2ccc(N3CCC(CN4CC5CCC(C4)N5c4ccc5c(c4)C(=O)N(N4CCC(=O)NC4=O)C5=O)CC3)nc2)C(C)(C)[C@H]1Oc1ccc(C#N)c(Cl)c1 [GT-05305, N-((1r,3r)-3-(3-chloro-4-cyanophenoxy)-2,2,4,4-tetramethylcyclobutyl)-6-(4-((8-(2-(2,4-dioxotetrahydropyrimidin-1(2H)-yl)-1,3-dioxoisoindolin-5-yl)-3,8-diazabicyclo[3.2.1]octan-3-yl)methyl)piperidin-1-yl)nicotinamide] | A (0%≤substrate protein remaining %≤80%) | 10 to 15% | 40 to 60% | 20 to 30% | 40 to 60% | 25 to 30% | 40 to 60% | – | –
CC1(C)[C@H](NC(=O)c2ccc(N3CCC(CN4CCN(c5cc(F)c6c(c5)C(=O)N(N5CCC(=O)NC5=O)C6=O)CC4)CC3)nc2)C(C)(C)[C@H]1Oc1ccc(C#N)c(Cl)c1 [GT-05346, N-((1r,3r)-3-(3-chloro-4-cyanophenoxy)-2,2,4,4-tetramethylcyclobutyl)-6-(4-((4-(2-(2,4-dioxotetrahydropyrimidin-1(2H)-yl)-7-fluoro-1,3-dioxoisoindolin-5-yl)piperazin-1-yl)methyl)piperidin-1-yl)nicotinamide] | A (0%≤substrate protein remaining %≤80%) | 0 to 5% | 20 to 30% | 15 to 20% | 20 to 30% | 15 to 20% | 35 to 40% | – | –
N#Cc1ccc(O[C@H]2CC[C@H](NC(=O)c3ccc(N4CCC(CN5C6CC5CN(c5ccc7c(c5)C(=O)N(N5CCC(=O)NC5=O)C7=O)C6)CC4)nn3)CC2)cc1Cl [GT-05821, N-((1r,4r)-4-(3-chloro-4-cyanophenoxy)cyclohexyl)-6-(4-((3-(2-(2,4-dioxotetrahydropyrimidin-1(2H)-yl)-1,3-dioxoisoindolin-5-yl)-3,6-diazabicyclo[3.1.1]heptan-6-yl)methyl)piperidin-1-yl)pyridazine-3-carboxamide] | A (0%≤substrate protein remaining %≤80%) | 10 to 15% | 20 to 30% | 15 to 20% | 30 to 40% | 15 to 20% | 40 to 60% | – | –
N#Cc1ccc(O[C@H]2CC[C@H](NC(=O)c3ccc(N4CCC(CN5CCN(C6CCN(c7ccc8c(c7)C(=O)N(N7CCC(=O)NC7=O)C8=O)CC6)CC5)CC4)nn3)CC2)cc1Cl [GT-05829, N-((1r,4r)-4-(3-chloro-4-cyanophenoxy)cyclohexyl)-6-(4-((4-(1-(2-(2,4-dioxotetrahydropyrimidin-1(2H)-yl)-1,3-dioxoisoindolin-5-yl)piperidin-4-yl)piperazin-1-yl)methyl)piperidin-1-yl)pyridazine-3-carboxamide] | A (0%≤substrate protein remaining %≤80%) | – | – | 15 to 20% | 20 to 30% | 10 to 15% | 35 to 40% | – | –
